Laboratory results published in US20160324884A1, “TREATMENT OF DIABETES WITH PENTACYCLIC TRITERPENOID SAPONIN COMPOUNDS FROM SZECHUAN MELANDIUM ROOT” (priority 2013, published 2016).

What was measured:
Assay type in all cases: in vivo
[1] = system: KK^Ay mice; assay: Glycemia in KK^Ay mice during treatment and after withdrawal (Example 3)
Text: (§1) 60 male KK^Ay mice (12 weeks of age, License NO. SCXK (BJ) 2009-0015, Beijing Huafukang Biology Technology Co. Ltd.) and 10 normal male C57BL/6 mice (12 weeks of age, License NO. SCXK (BJ) 2009-0015, Beijing Huafukang Biology Technology Co. Ltd.) were adaptively bred for one week, and then used in the following experiment.
(§2) 60 KK^Ay mice were adaptively bred for 1 week, and then randomly assigned into 6 groups: Model group, Compound (1) group, Compound (2) group, Compound (3) group, Compound (4) group, and metformin group, 10 mice per group. 10 normal C57BL/6 mice were used for the control group. KK^Ay mice were in a high-fat diet, and the control normal mice were in a normal control diet. The control and model groups were hypodermically injected with sterile water, the 6 medicated groups mice were subcutaneously injected with […] Wacao saponins, (Compounds (1), (2), (3) and (4)) respectively, and the positive group was administered metformin by gavage. All mice were administrated at 9 am for 2 weeks and the administration volume is 10 ml/kg BW.
(§3) Compound (1), (2), (3) and (4) were respectively dissolved into sterile water, and sterilized with filtration for Sc. to the medication groups. The metformin was dissolved into sterile water for lg. to the positive control group. Control and model groups animals were injected with sterile water (10 ml/kg BW), Sc. All the animals were treated daily at 9 am for 2 weeks (14 days).
(§4) Blood detection: Blood glucose was measured weekly. Overnight fasting glycemia level was measured with One Touch ULTRA Glucometer for the tail blood test. At the end of the experiment, blood serum was collected for measuring levels of fasting blood glucose and insulin, and the insulin sensitivity index (ISI) was calculated. At the same time, hepatic tissues and skeletal muscles of mice were taken out to determine levels of hepatic and muscle glycogen by detection kits.
Termination of the experiment After administrating mice for 2 weeks (14 days), the experiment was terminated.
This experiment is to observe the anti-hyperglycemia effects of Wacao saponins on KK^Ay mice during and after the period of drug treatment, respectively.

[2] = system: KK^Ay mice; assay: Effects of Wacao saponins on glycemia in KK^Ay T2DM mice (Example 2)
Text: as §1, with “80” for “60”, “10 male” for “10”, “normal” for “normal male”, “pharmacological” for “following”
The animals were housed individually in wood-chip-bedded plastic cages. Germ-free and high-fat diets (Beijing Huafukang Biology Technology Co. Ltd.) were used to feed the KK^Ay mice, and the standard laboratory chows were used to feed normal C57BL/6 mice. All the animals had free access to food and water.
80 KK^Ay mice were adaptively bred for 1 week, and then randomly assigned into 8 groups: Model group, Compound (1) group, Compound (2) group, Compound (3) group, Compound (4) group, Compound (7) group, Compound (8) group and metformin group, 10 mice per group. 10 normal C57BL/6 mice were used as the control group. KK^Ay mice were fed with the high-fat diet, and the control group was fed with the normal control diet. The control and model groups were hypodermically injected with sterile water, 6 medicated groups were hypodermically injected with 6 kinds of Wacao saponins, the Compounds (1), (2), (3), (4), (7) and (8), and the positive group (metformin group) was irrigated per oral. All groups were administrated at 9 am for 2 weeks. The administrating volume is 10 ml/kg BW and the administration dosage is shown in Table3.
All mice of the fasting tail blood glucose level were measured weekly using One Touch ULTRA Glucometer (Life Scan Johnson and Johnson, USA).
Each compound of Wacao saponins was dissolved into sterile water and sterilized with filtration for Sc. The metformin was dissolved into sterile water for lg. The control and model group mice were injected with sterile water, Sc. All the animals were treated at 9 am for 2 weeks.
Overnight fasting tail blood glucose level was measured weekly using One Touch ULTRA Glucometer and measured for twice.
Each group was administrated for 2 weeks (14 days) and then the experiment was terminated.
Results are expressed as means±SD. Statistical analysis were analyzed by using SPSS 10.0 software. Data were evaluated with analysis of variance.

[3] = system: KK^Ay mice; assay: Blood insulin content and insulin sensitivity index (ISI) in KK^Ay mice (Example 3); conditions: serum, after 2 weeks treatment, vs model group
Text: as §2
The body weight, food and water intake of each mouse was measured and recorded weekly throughout the course of the experiment. At the end of the experiment, collected the blood and separated serum, fasting blood glucose, insulin levels and insulin sensitivity index (ISI) were measured or calculated in each group. […]
as §4, with “At the same time, hepatic tissues and skeletal muscles of mice were taken out to determine levels of hepatic and muscle glycogen by detection kits.” left out

[4] = system: KK^Ay mice; assay: Body weight, food and water intake in KK^Ay mice (Example 3); conditions: vs model group
Text: as §1
The animals were housed individually in wood-chip-bedded plastic cages. Germ-free and high-fat diets (Beijing Huafukang Biology Technology Co. Ltd.) were used to feed the KK^Ay mice. All the animals had free access to food and water.
as §2
(§5) The body weight, food and water intake of each mouse was measured and recorded weekly throughout the course of the experiment. At the end of the experiment, collected the blood and separated serum, fasting blood glucose, insulin levels and insulin sensitivity index (ISI) were measured or calculated in each group. Liver, skeletal muscles of mice in each group were taken and weighed for detecting glycogen levels of the hepatic and muscles after mice being killed.
as §3
Measurement of food and water intake: 24 hours' food and water intake were measured by gravimetry once a week. It should be paid attention to recycling leakage of small forage into the feed box to ensure the accuracy of food intake.
Determination of body weight: The body weight of mice was measured and recorded once a week.
Results are shown as means±SD. Statistical analysis data were analyzed by using SPSS 10.0 software. Data were evaluated with analysis of variance.

[5] = system: KK^Ay mice; assay: Hepatic and muscle glycogen in KK^Ay mice (Example 3); conditions: 2.0 mg/kg Sc, after 2 weeks, vs model group
Text: as §2, §5, §3, §4

COC(=O)C1OC(O[C@H]2CC[C@]3(C)[C@H]4C=CC5[C@@H]6CC(C)(C)CC[C@]6(C(=O)OC6OC(C)C(OC(=O)/C=C\c7ccc(C)cc7)C(OC(C)=O)C6OC6OC(C)C(O)C(O)C6O)[C@H](O)C[C@@]5(C)[C@]4(C)CC[C@H]3[C@]2(C)C=O)C(OC2OC(CO)C(O)C(O)C2O)C(OC2OCC(O)C(O)C2O)C1O (stereo partly drawn) [Compound (4), sinocrassuloside IX]
anti-hyperglycemia effect compared with metformin ([1]; KK^Ay mice, 2.0 mg/kg Sc vs metformin 500 mg/kg lg): all treatment groups except Compound (4) had stronger anti-hyperglycemia effects than that of metformin
glycemia level ([1]; KK^Ay mice, after 1 week, compounds 2.0 mg/kg Sc, metformin 500 mg/kg lg, vs model group): each treatment group, except the Compound (4) group, showed a significantly decrease
descending rates of blood glucose ([1]; T2DM mice, 2 mg/kg, two weeks after subcutaneous injection): 50%
glycemia (fasting tail blood glucose), hypoglycemic activity ([2]; 2.0 mg/kg BW Sc daily, after 1 week, vs model group): then followed by Compound (2), Compound (4), Compound (3) and Compound (7)
anti-hyperglycemia effect, compounds compared with each other ([2]; 2.0 mg/kg BW Sc, 2 weeks, ranking): followed by Compound (3) and (4) (cis-trans-isomers), and Compound (7)
insulin level [3]: all groups except Compound (4) increased significantly
food intake ([4]; after 2 weeks, compounds 2.0 mg/kg Sc, metformin 500 mg/kg lg): except the Compound (4) group, mice in all groups showed obvious reduction in food intake
water intake ([4]; week 1, 2.0 mg/kg Sc): decreased significantly (p<0.05 or p<0.01, vs. model group), except Compound (4) group in week 1
muscle glycogen level [5]: weaker efficacy in raising level of muscle glycogen which had no statistical significant difference compared with that of the model group
